# Experimental data published in ChEMBL document CHEMBL4396916, “Novel potent substituted 4-amino-2-thiopyrimidines as dual VEGFR-2 and BRAF kinase inhibitors” (Eur J Med Chem, 2019).
# Assays:
# KM12 = assay: Growth inhibition of human KM12 cells at 10 uM incubated for 48 hrs by sulforhodamine B assay relative to control; type: functional; details: KM12, 48 h, read-out: GI
# LOX IMVI = assay: Growth inhibition of human LOXIMVI cells at 10 uM incubated for 48 hrs by sulforhodamine B assay relative to control; type: functional; details: read-out: GI
# SF-295 = assay: Growth inhibition of human SF295 cells at 10 uM incubated for 48 hrs by sulforhodamine B assay relative to control; type: functional; details: SF-295, 48 h, read-out: GI
# SN12C = assay: Growth inhibition of human SN12C cells at 10 uM incubated for 48 hrs by sulforhodamine B assay relative to control; type: functional; details: read-out: GI
# [1] = target: Serine/threonine-protein kinase B-raf (Homo sapiens, UniProt P15056); assay: Inhibition of human wild type BRAF by Kinase-Glo luminescence assay
# Sequence of Serine/threonine-protein kinase B-raf (P15056 whole entry): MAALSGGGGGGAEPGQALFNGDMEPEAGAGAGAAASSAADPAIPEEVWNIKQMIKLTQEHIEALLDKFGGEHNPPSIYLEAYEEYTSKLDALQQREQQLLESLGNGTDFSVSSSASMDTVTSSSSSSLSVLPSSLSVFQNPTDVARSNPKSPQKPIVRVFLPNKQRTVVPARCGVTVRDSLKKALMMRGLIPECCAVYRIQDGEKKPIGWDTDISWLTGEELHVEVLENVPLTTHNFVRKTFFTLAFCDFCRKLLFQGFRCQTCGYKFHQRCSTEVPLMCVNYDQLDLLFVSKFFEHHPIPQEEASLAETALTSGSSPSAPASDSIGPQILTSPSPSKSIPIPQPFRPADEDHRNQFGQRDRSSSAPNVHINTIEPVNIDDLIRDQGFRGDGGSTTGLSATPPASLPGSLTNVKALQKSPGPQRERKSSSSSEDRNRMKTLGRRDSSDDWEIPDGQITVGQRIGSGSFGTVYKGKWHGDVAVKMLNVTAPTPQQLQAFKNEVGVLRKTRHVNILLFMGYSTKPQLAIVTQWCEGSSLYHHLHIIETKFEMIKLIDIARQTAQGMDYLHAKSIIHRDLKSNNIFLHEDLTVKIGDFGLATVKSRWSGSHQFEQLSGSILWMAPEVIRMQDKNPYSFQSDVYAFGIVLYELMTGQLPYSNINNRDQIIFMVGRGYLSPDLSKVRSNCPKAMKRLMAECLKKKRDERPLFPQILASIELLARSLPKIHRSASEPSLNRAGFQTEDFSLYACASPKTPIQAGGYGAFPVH
# T47D [2] = assay: Cytotoxicity against human T47D cells expressing wild type BRAF measured after 48 hrs by sulforhodamine B assay; type: functional, cell-based
# MCF7 [3] = assay: Inhibition of VEGFR2 level in human MCF7 cells at 10 uM measured after 48 hrs by ELISA relative to control; type: functional; details: MCF7, 48 h
# SR = assay: Growth inhibition of human SR cells at 10 uM incubated for 48 hrs by sulforhodamine B assay relative to control; type: functional; details: read-out: GI
# NCI/ADR-RES = assay: Growth inhibition of human NCI/ADR-RES cells at 10 uM incubated for 48 hrs by sulforhodamine B assay relative to control; type: functional; details: read-out: GI
# HT-29 = assay: Growth inhibition of human HT-29 cells at 10 uM incubated for 48 hrs by sulforhodamine B assay relative to control; type: functional; details: HT-29, 48 h, read-out: GI
# OVCAR-4 = assay: Growth inhibition of human OVCAR4 cells at 10 uM incubated for 48 hrs by sulforhodamine B assay relative to control; type: functional; details: OVCAR-4, 48 h, read-out: GI
# MCF7 [4] = assay: Cytotoxicity against human MCF7 cells expressing VEGFR2 and wild type BRAF measured after 48 hrs by sulforhodamine B assay; type: functional, cell-based; details: MCF7, 48 h
# T47D [5] = assay: Growth inhibition of human T47D cells at 10 uM incubated for 48 hrs by sulforhodamine B assay relative to control; type: functional; details: read-out: GI
# ACHN = assay: Growth inhibition of human ACHN cells at 10 uM incubated for 48 hrs by sulforhodamine B assay relative to control; type: functional; details: read-out: GI
# IGROV-1 = assay: Growth inhibition of human IGROV1 cells at 10 uM incubated for 48 hrs by sulforhodamine B assay relative to control; type: functional; details: IGROV-1, 48 h, read-out: GI
# MOLT-4 = assay: Growth inhibition of human MOLT4 cells at 10 uM incubated for 48 hrs by sulforhodamine B assay relative to control; type: functional; details: MOLT-4, 48 h, read-out: GI
# A549 = assay: Growth inhibition of human A549/ATCC cells at 10 uM incubated for 48 hrs by sulforhodamine B assay relative to control; type: functional; details: A549, 48 h, read-out: GI
# NCI-H522 = assay: Growth inhibition of human NCI-H522 cells at 10 uM incubated for 48 hrs by sulforhodamine B assay relative to control; type: functional; details: NCI-H522, 48 h, read-out: GI
# M14 = assay: Growth inhibition of human M14 cells at 10 uM incubated for 48 hrs by sulforhodamine B assay relative to control; type: functional; details: M14, 48 h, read-out: GI
# SK-MEL-5 = assay: Growth inhibition of human SK-MEL-5 cells at 10 uM incubated for 48 hrs by sulforhodamine B assay relative to control; type: functional; details: SK-MEL-5, 48 h, read-out: GI
# HCT-15 = assay: Growth inhibition of human HCT15 cells at 10 uM incubated for 48 hrs by sulforhodamine B assay relative to control; type: functional; details: HCT-15, 48 h, read-out: GI
# RPMI-8226 = assay: Growth inhibition of human RPMI8226 cells at 10 uM incubated for 48 hrs by sulforhodamine B assay relative to control; type: functional; details: RPMI-8226, 48 h, read-out: GI
# [6] = target: Vascular endothelial growth factor receptor 2 (Homo sapiens, UniProt P35968); assay: Inhibition of human N-terminal GST tagged VEGFR-2 expressed in baculovirus infected Sf9 cells using poly (Glu,Tyr) 4:1 as substrate in presence of ATP by Kinase-Glo luminescence assay
# Sequence of Vascular endothelial growth factor receptor 2 (P35968 whole entry): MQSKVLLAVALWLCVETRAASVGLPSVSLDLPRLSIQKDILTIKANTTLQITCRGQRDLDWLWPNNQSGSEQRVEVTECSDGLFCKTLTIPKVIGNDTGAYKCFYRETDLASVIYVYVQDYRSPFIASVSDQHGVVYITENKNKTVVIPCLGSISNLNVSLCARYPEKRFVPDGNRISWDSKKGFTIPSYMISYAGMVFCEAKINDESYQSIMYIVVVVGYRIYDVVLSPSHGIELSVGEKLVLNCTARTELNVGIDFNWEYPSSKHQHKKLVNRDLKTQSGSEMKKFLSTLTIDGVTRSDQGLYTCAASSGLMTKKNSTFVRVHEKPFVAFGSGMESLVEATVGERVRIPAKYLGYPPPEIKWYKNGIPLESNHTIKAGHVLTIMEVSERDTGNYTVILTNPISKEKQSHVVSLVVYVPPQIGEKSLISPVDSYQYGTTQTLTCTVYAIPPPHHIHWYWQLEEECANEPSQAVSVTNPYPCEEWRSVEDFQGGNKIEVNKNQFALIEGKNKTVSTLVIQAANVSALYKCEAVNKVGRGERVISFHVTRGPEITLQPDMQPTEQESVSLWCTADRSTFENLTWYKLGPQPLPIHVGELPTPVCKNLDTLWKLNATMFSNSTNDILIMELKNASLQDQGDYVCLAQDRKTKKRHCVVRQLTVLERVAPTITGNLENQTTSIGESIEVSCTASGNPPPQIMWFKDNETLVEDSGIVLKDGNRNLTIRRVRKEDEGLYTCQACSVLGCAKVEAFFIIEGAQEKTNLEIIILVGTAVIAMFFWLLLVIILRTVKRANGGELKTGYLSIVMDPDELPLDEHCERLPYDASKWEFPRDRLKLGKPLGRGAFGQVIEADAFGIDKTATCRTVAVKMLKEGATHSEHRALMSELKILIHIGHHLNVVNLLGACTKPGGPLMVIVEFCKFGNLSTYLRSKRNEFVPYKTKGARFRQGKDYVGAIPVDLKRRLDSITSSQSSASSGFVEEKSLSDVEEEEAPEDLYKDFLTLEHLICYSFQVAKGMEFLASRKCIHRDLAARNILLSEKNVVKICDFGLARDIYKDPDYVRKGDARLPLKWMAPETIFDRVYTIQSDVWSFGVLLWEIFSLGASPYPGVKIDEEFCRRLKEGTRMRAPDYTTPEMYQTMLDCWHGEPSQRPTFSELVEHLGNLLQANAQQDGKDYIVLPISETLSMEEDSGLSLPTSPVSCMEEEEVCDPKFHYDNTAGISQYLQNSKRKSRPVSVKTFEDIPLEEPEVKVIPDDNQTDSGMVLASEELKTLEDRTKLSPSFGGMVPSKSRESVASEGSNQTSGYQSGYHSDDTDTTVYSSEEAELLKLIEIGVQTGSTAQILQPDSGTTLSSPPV
# MCF7 [7] = assay: Growth inhibition of human MCF7 cells at 10 uM incubated for 48 hrs by sulforhodamine B assay relative to control; type: functional; details: MCF7, 48 h, read-out: GI
# NCI-H226 = assay: Growth inhibition of human NCI-H226 cells at 10 uM incubated for 48 hrs by sulforhodamine B assay relative to control; type: functional; details: NCI-H226, 48 h, read-out: GI
# CCRF-CEM = assay: Growth inhibition of human CCRF-CEM cells at 10 uM incubated for 48 hrs by sulforhodamine B assay relative to control; type: functional; details: read-out: GI
# PC-3 = assay: Growth inhibition of human PC3 cells at 10 uM incubated for 48 hrs by sulforhodamine B assay relative to control; type: functional; details: PC-3, 48 h, read-out: GI
# MDA-MB-468 = assay: Growth inhibition of human MDA-MB-468 cells at 10 uM incubated for 48 hrs by sulforhodamine B assay relative to control; type: functional; details: MDA-MB-468, 48 h, read-out: GI
# SF-539 = assay: Growth inhibition of human SF539 cells at 10 uM incubated for 48 hrs by sulforhodamine B assay relative to control; type: functional; details: SF-539, 48 h, read-out: GI
# OVCAR-8 = assay: Growth inhibition of human OVCAR8 cells at 10 uM incubated for 48 hrs by sulforhodamine B assay relative to control; type: functional; details: OVCAR-8, 48 h, read-out: GI
# DU-145 = assay: Growth inhibition of human DU145 cells at 10 uM incubated for 48 hrs by sulforhodamine B assay relative to control; type: functional; details: DU-145, 48 h, read-out: GI
# UACC-257 = assay: Growth inhibition of human UACC257 cells at 10 uM incubated for 48 hrs by sulforhodamine B assay relative to control; type: functional; details: UACC-257, 48 h, read-out: GI
# NCI-H23 = assay: Growth inhibition of human NCI-H23 cells at 10 uM incubated for 48 hrs by sulforhodamine B assay relative to control; type: functional; details: NCI-H23, 48 h, read-out: GI
# SK-MEL-28 = assay: Growth inhibition of human SK-MEL-28 cells at 10 uM incubated for 48 hrs by sulforhodamine B assay relative to control; type: functional; details: SK-MEL-28, 48 h, read-out: GI
# MDA-MB-231 = assay: Growth inhibition of human MDA-MB-231 cells at 10 uM incubated for 48 hrs by sulforhodamine B assay relative to control; type: functional; details: MDA-MB-231, 48 h, read-out: GI
# CAKI-1 = assay: Growth inhibition of human Caki1 cells at 10 uM incubated for 48 hrs by sulforhodamine B assay relative to control; type: functional; details: CAKI-1, 48 h, read-out: GI
# EKVX = assay: Growth inhibition of human EKVX cells at 10 uM incubated for 48 hrs by sulforhodamine B assay relative to control; type: functional; details: read-out: GI
# UO-31 = assay: Growth inhibition of human UO31 cells at 10 uM incubated for 48 hrs by sulforhodamine B assay relative to control; type: functional; details: UO-31, 48 h, read-out: GI
# MDA-MB-435 = assay: Growth inhibition of human MDA-MB-435 cells at 10 uM incubated for 48 hrs by sulforhodamine B assay relative to control; type: functional; details: MDA-MB-435, 48 h, read-out: GI
# HCT-116 = assay: Growth inhibition of human HCT116 cells at 10 uM incubated for 48 hrs by sulforhodamine B assay relative to control; type: functional; details: HCT-116, 48 h, read-out: GI
# NCI-H460 = assay: Growth inhibition of human NCI-H460 cells at 10 uM incubated for 48 hrs by sulforhodamine B assay relative to control; type: functional; details: NCI-H460, 48 h, read-out: GI
# BT-549 = assay: Growth inhibition of human BT549 cells at 10 uM incubated for 48 hrs by sulforhodamine B assay relative to control; type: functional; details: BT-549, 48 h, read-out: GI
# A498 = assay: Growth inhibition of human A498 cells at 10 uM incubated for 48 hrs by sulforhodamine B assay relative to control; type: functional; details: A498, 48 h, read-out: GI
# UACC-62 = assay: Growth inhibition of human UACC62 cells at 10 uM incubated for 48 hrs by sulforhodamine B assay relative to control; type: functional; details: UACC-62, 48 h, read-out: GI
# K562 = assay: Growth inhibition of human K562 cells at 10 uM incubated for 48 hrs by sulforhodamine B assay relative to control; type: functional; details: K562, 48 h, read-out: GI
smiles,measurement,setting,value
CCOC(=O)c1ccc(Nc2ccnc(SCC(=O)c3ccc([N+](=O)[O-])cc3)n2)cc1,inhibition of growth at 10 µM,KM12,21%
same,inhibition of growth at 10 µM,LOX IMVI,10%
same,inhibition of growth at 10 µM,SF-295,28%
same,inhibition of growth at 10 µM,SN12C,17%
same,IC50,[1],0.22 µM
same,IC50,T47D [2],8.09 µM
same,inhibition at 10 µM,MCF7 [3],80%
same,inhibition of growth at 10 µM,SR,35%
same,inhibition of growth at 10 µM,NCI/ADR-RES,27%
same,inhibition of growth at 10 µM,HT-29,19%
same,inhibition of growth at 10 µM,OVCAR-4,20%
same,IC50,MCF7 [4],16.5 µM
same,inhibition of growth at 10 µM,T47D [5],60%
same,inhibition of growth at 10 µM,ACHN,15%
same,inhibition of growth at 10 µM,IGROV-1,19%
same,inhibition of growth at 10 µM,MOLT-4,58%
same,inhibition of growth at 10 µM,A549,21%
same,inhibition of growth at 10 µM,NCI-H522,37%
same,inhibition of growth at 10 µM,M14,16%
same,inhibition of growth at 10 µM,SK-MEL-5,41%
same,inhibition of growth at 10 µM,HCT-15,13%
same,inhibition of growth at 10 µM,RPMI-8226,54%
same,IC50,[6],0.41 µM
same,inhibition of growth at 10 µM,MCF7 [7],22%
same,inhibition of growth at 10 µM,NCI-H226,16%
same,inhibition of growth at 10 µM,CCRF-CEM,49%
same,inhibition of growth at 10 µM,PC-3,33%
same,inhibition of growth at 10 µM,MDA-MB-468,51%
same,inhibition of growth at 10 µM,SF-539,11%
same,inhibition of growth at 10 µM,OVCAR-8,31%
same,inhibition of growth at 10 µM,DU-145,16%
same,inhibition of growth at 10 µM,UACC-257,13%
same,inhibition of growth at 10 µM,NCI-H23,13%
same,inhibition of growth at 10 µM,SK-MEL-28,11%
same,inhibition of growth at 10 µM,MDA-MB-231,22%
same,inhibition of growth at 10 µM,CAKI-1,16%
same,inhibition of growth at 10 µM,EKVX,27%
same,inhibition of growth at 10 µM,UO-31,41%
same,inhibition of growth at 10 µM,MDA-MB-435,15%
same,inhibition of growth at 10 µM,HCT-116,26%
same,inhibition of growth at 10 µM,NCI-H460,11%
same,inhibition of growth at 10 µM,BT-549,28%
same,inhibition of growth at 10 µM,A498,61%
same,inhibition of growth at 10 µM,UACC-62,29%
same,inhibition of growth at 10 µM,K562,37%
